Results reported in PubChem BioAssay AID1208 (EPA DSSTox, 2008).
Calls of active or inactive are those of the source.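 The calls were made as follows: active = at least one rat sex group has a carcinogenic potency value and tumor site recorded; inconclusive = only rat studies were judged inadequate by the national testing program; inactive = no potency or tumor site, with negative rat experiments.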

Test system: rat chronic carcinogenicity bioassay, TD50
Experiment: DSSTox (CPDBAS) Carcinogenic Potency Database Summary Rat Bioassay Results
Conditions: for Potency: stronger effect = lower value
How it was run: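 Chronic long-term rat cancer bioassays from literature and NCI/NTP, taking the most positive result per sex. TD50 in mmol converted to a 1–100 Activity Score from log10(1/TD50). Mixtures lacking TD50 scored 50.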

[1] = TD50_Rat_Note: no positive results, TargetSites_Rat_Female: no positive results
[2] = TD50_Rat_Note: no positive results
[3] = TargetSites_Rat_Female: no positive results
[4] = TD50_Rat_Note: TD50 is harmonic mean of more than one positive test, TargetSites_Rat_Female: mammary gland

In the case of `O=[N+]([O-])c1ccc(-c2cnc3ccccn23)o1`, the Potency (TD50_Rat_Note: TD50 is harmonic mean of more than one positive test, TargetSites_Rat_Female: esophagus, kidney, mammary gland, stomach) is reported as 13.6 mg/kg/day.

`CC1CN(N=O)C(=O)NC1=O` (stereo not drawn) was tested, and the outcome [1] was “inactive; no positive results”.

With `CC1=C(CC(=O)O)c2cc(F)ccc2/C1=C\c1ccc(S(C)(=O)=O)cc1` the outcome [2] was “inactive; no positive results”.

Compound `CN(CCCC(O)c1cccnc1)N=O` (stereo not drawn) has a Potency of 0.103 mg/kg/day.

`CC(=O)Nc1ccc(N=Nc2cc(C)ccc2O)cc1` showed a Potency [3] of 380 mg/kg/day.

In the case of `OCCN(CCO)c1nc(-c2cccs2)nc2ccccc12`, the outcome [1] is reported as “inactive”.

`CC(C)CN(N=O)C(=N)N[N+](=O)[O-]` was tested, and the outcome [2] was “inactive; no positive results”.

`CCCCCC(/C=C/C=C\CCCCCCCC(=O)OC)OO` (stereo not drawn) was tested, and the outcome [2] was “inactive; no positive results”.

`CN(C)c1ccc(N=Nc2ccccc2)cc1` showed a Potency (TargetSites_Rat_Female: liver) of 3.31 mg/kg/day.

Compound `ClC(Cl)=C(Cl)Cl` has a Potency (TD50_Rat_Note: TD50 is harmonic mean of more than one positive test, TargetSites_Rat_Female: hematopoietic system) of 145 mg/kg/day.

`Nc1cccc2c(N)cccc12` showed a Potency (TargetSites_Rat_Female: clitoral gland, uterus) of 69.6 mg/kg/day.

`CC(=O)O[C@@H]1[C@@H](O)C2OC3C=C(C)C(=O)C(O)[C@@]3(CO)[C@]1(C)[C@]21CO1` (stereo partly drawn) was tested, and the outcome [2] was “inactive; no positive results”.

In the case of `OCC(CO)(CBr)CBr`, the Potency (TD50_Rat_Note: TD50 is harmonic mean of more than one positive test, TargetSites_Rat_Female: esophagus, mammary gland, oral cavity, thyroid gland) is reported as 111 mg/kg/day.

In the case of `COP(=S)(OC)Oc1ccc([N+](=O)[O-])cc1`, the outcome [1] is reported as “inactive; no positive results”.

In the case of `Nc1ccc2cc3ccc(N)cc3nc2c1`, the outcome (TD50_Rat_Note: only experiment is NCI/NTP bioassay inadequate, TargetSites_Rat_Female: NTP bioassay inadequate) is reported as “ntp bioassay inadequate”.

For `Nc1cc(Cl)c(-c2cc(Cl)c(N)cc2Cl)cc1Cl`, the outcome [1] was “inactive; no positive results”.

For `CC(C)(CO)CCCCCCC(C)(C)CO`, the outcome [1] was “inactive; no positive results”.

Compound `Cc1ccc(O)c(O)c1` has a Potency (TD50_Rat_Note: TD50 is harmonic mean of more than one positive test, harmonic mean of TD50 includes a value for upper 99% confidence li, TargetSites_Rat_Female: stomach) of 248 mg/kg/day.

`CC(C)=CCl` was tested, and the Potency (TD50_Rat_Note: TD50 is harmonic mean of more than one positive test, TargetSites_Rat_Female: esophagus, nasal cavity, oral cavity, stomach) was 31.8 mg/kg/day.

For `C=C(Cl)Cl`, the outcome [1] was “inactive; no positive results”.

`CN(C)c1ccc(Cc2ccc(N(C)C)cc2)cc1` was tested, and the Potency (TD50_Rat_Note: TD50 is harmonic mean of more than one positive test, TargetSites_Rat_Female: thyroid gland) was 16.4 mg/kg/day.

With `CC(C)[N+](=O)[O-]` the outcome [1] was “inactive; no positive results”.

`C=COC(C)=O` showed a Potency (TD50_Rat_Note: TD50 is harmonic mean of more than one positive test, greater than ten-fold variation among TD50 values for positive res, TargetSites_Rat_Female: liver, nasal cavity, thyroid gland, uterus) of 341 mg/kg/day.

`CCBr` showed a Potency (TD50_Rat_Note: no positive results are statistically significant, TargetSites_Rat_Female: no positive results) of 149 mg/kg/day.

With `O=C(O)CCCc1ccc(N(CCCl)CCCl)cc1` the Potency (TD50_Rat_Note: TD50 is harmonic mean of more than one positive test, TargetSites_Rat_Female: ear Zymbals gland, mammary gland, nervous system) was 0.896 mg/kg/day.

`CCCC(Cl)CCC(Cl)CCC(Cl)CCC(Cl)CCC(Cl)CCC(Cl)CCC(C)Cl` (stereo not drawn) was tested, and the outcome [1] was “inactive; no positive results”.

Compound `NC(=O)N(CCCO)N=O` has a Potency (TD50_Rat_Note: TD50 is harmonic mean of more than one positive test, TargetSites_Rat_Female: stomach) of 0.978 mg/kg/day.

Compound `CCCCCN(N=O)C(N)=O` has a Potency (TD50_Rat_Note: TD50 is harmonic mean of more than one positive test, TargetSites_Rat_Female: hematopoietic system, lung, mammary gland, stomach, uterus) of 0.555 mg/kg/day.

`Cc1cc(C)nc(-c2ccc([N+](=O)[O-])o2)n1` showed a Potency (TD50_Rat_Note: harmonic mean of TD50 includes a value for upper 99% confidence limit from study with 100% tumor incidence but no lifeta, TargetSites_Rat_Female: kidney, mammary gland, small intestine, stomach, vascular system) of 1.39 mg/kg/day.

With `CN(N=O)c1ccccn1` the Potency (TargetSites_Rat_Female: esophagus) was 0.214 mg/kg/day.

`CNCCc1ccc(OC(=O)C(C)C)c(OC(=O)C(C)C)c1` was tested, and the outcome [1] was “inactive; no positive results”.

`O=C1C2(Cl)C3(Cl)C4(Cl)C(Cl)(Cl)C5(Cl)C3(Cl)C1(Cl)C5(Cl)C24Cl` (stereo not drawn) gave a Potency (TargetSites_Rat_Female: liver) of 2.96 mg/kg/day.

With `CC(C)(C)c1cc(CO)cc(C(C)(C)C)c1O` the outcome [1] was “inactive; no positive results”.

`CC(=O)Nc1ccc(CC(=O)O)cc1` was tested, and the outcome [1] was “inactive; no positive results”.

In the case of `[O]=[Cr][O][Cr]=[O]`, the outcome (TD50_Rat_Note: no positive results, TargetSites_Rat_BothSexes: no positive results) is reported as “inactive”.

In the case of `CC(=O)CN(C)N=O`, the Potency (TD50_Rat_Note: TD50 is harmonic mean of more than one positive test, TargetSites_Rat_Female: esophagus, liver, nasal cavity, oral cavity) is reported as 0.0172 mg/kg/day.

With `CC(=O)OC/C=C(C)/C=C/C=C(C)/C=C/C1=C(C)CCCC1(C)C` the Potency (TD50_Rat_Note: TD50 is harmonic mean of more than one positive test, TargetSites_Rat_Female: adrenal gland) was 125 mg/kg/day.

In the case of `CN1[C@@H]2CC[C@H]1CC(OC(=O)C(CO)c1ccccc1)C2` (stereo partly drawn), the outcome [1] is reported as “inactive; no positive results”.

`NC(N)=O` was tested, and the outcome [1] was “inactive; no positive results”.

`Nc1ccc(O)c(N)c1` was tested, and the outcome [1] was “inactive; no positive results”.

`CC(C)Cc1ccc(C(C)C(=O)O)cc1` (stereo not drawn) was tested, and the outcome [2] was “inactive; no positive results”.

For `Cc1ccc(Cl)cc1N`, the outcome [1] was “inactive; no positive results”.

With `CN=C(N)N` the outcome [2] was “inactive; no positive results”.

Compound `NNC(=O)c1ccncc1` has a Potency [4] of 150 mg/kg/day.

`N[C@@H](CC(=O)O)C(=O)O` was tested, and the outcome [1] was “inactive; no positive results”.

In the case of `c1ccc(Nc2ccc(Nc3ccccc3)cc2)cc1`, the outcome [1] is reported as “inactive; no positive results”.

`C=C(C)C(=O)OC` was tested, and the outcome [1] was “inactive; no positive results”.

With `Cc1cccc2cccnc12` the outcome [1] was “inactive; no positive results”.

For `CC(C)(c1ccc(O)cc1)c1ccc(O)cc1`, the outcome [1] was “inactive; no positive results”.

Work on `ClC#CCl` yielded a Potency (TD50_Rat_Note: TD50 is harmonic mean of more than one positive test, TargetSites_Rat_Female: hematopoietic system, kidney, liver) of 3.58 mg/kg/day.

Compound `FC(F)=C(F)F` has a Potency (TD50_Rat_Note: TD50 is harmonic mean of more than one positive test, TargetSites_Rat_Female: hematopoietic system, kidney, liver, vascular system) of 107 mg/kg/day.

With `C1CCC(C(CC2CCCCN2)C2CCCCC2)CC1` (stereo not drawn) the outcome [1] was “inactive; no positive results”.

For `CCC(Br)(CC)C(=O)NC(N)=O`, the outcome [1] was “inactive; no positive results”.

With `CCCOC(=O)c1cc(O)c(O)c(O)c1` the outcome [1] was “inactive; no positive results”.

With `O=[N+]([O-])c1ccc(Nc2ccc(Nc3ccccc3)c(S(=O)(=O)O)c2)c([N+](=O)[O-])c1` the Potency (TargetSites_Rat_Female: kidney) was 1710 mg/kg/day.

With `CCOc1nc2cccc(C(=O)OC(C)OC(=O)OC3CCCCC3)c2n1Cc1ccc(-c2ccccc2-c2nn[nH]n2)cc1` (stereo not drawn) the outcome [1] was “inactive; no positive results”.

Work on `CC(=O)Nc1ccc2c(c1)C(=O)c1ccccc1-2` yielded a Potency (TargetSites_Rat_Female: ear Zymbals gland, liver, mammary gland) of 6.17 mg/kg/day.

With `S=C=NCc1ccccc1` the outcome [2] was “inactive; no positive results”.

For `Nc1ccc(Oc2ccc(N)cc2)cc1`, the Potency (TD50_Rat_Note: TD50 is harmonic mean of more than one positive test, TargetSites_Rat_Female: liver, thyroid gland) was 9.51 mg/kg/day.

`C=CCN(CC(O)CO)N=O` (stereo not drawn) showed a Potency (TargetSites_Rat_Female: esophagus, nasal cavity) of 0.825 mg/kg/day.

In the case of `COc1ccc(CCN2CCC(Nc3nc4ccccc4n3Cc3ccc(F)cc3)CC2)cc1`, the outcome [1] is reported as “inactive; no positive results”.

In the case of `CCOC1=C(O)C(=O)O[C@@H]1[C@@H](O)CO`, the outcome [1] is reported as “inactive”.

With `[N-]=[N+]=[N-]` the outcome [1] was “inactive; no positive results”.

With `S=C=NCCc1ccccc1` the outcome [2] was “inactive; no positive results”.

`CCOc1ccc(NC(N)=O)cc1` showed a Potency (TargetSites_Rat_BothSexes: liver) of 537 mg/kg/day.

For `Cc1ccc2cc3c(ccc4ccccc43)c3c2c1CC3`, the Potency (TD50_Rat_Note: TD50 is harmonic mean of more than one positive test, harmonic mean of TD50 includes a value for upper 99% confidence li, TargetSites_Rat_Female: mammary gland) was 0.491 mg/kg/day.

For `CCCCOCCOCCOCc1cc2c(cc1CCC)OCO2`, the Potency (TD50_Rat_Note: TD50 is harmonic mean of more than one positive test, TargetSites_Rat_Female: liver) was 633 mg/kg/day.

For `O=C(O)CCl`, the outcome [1] was “inactive; no positive results”.

In the case of `[O-][Cl+]O`, the outcome [1] is reported as “inactive; no positive results”.

In the case of `OCCN(CCO)CCO`, the outcome [1] is reported as “inactive; no positive results”.

In the case of `Oc1ccc(Cl)cc1Cl`, the outcome [1] is reported as “inactive; no positive results”.

`CC(C)n1c(/C=C/[C@@H](O)C[C@@H](O)CC(=O)O)c(-c2ccc(F)cc2)c2ccccc21` showed a Potency [3] of 125 mg/kg/day.

For `Nc1cnn([C@@H]2O[C@H](CO)[C@@H](O)[C@H]2O)c(=O)n1`, the outcome [2] was “inactive; no positive results”.

With `CCN(CC)CCOc1ccc(C(O)(Cc2ccc(OC)cc2)c2ccccc2)cc1` (stereo not drawn) the outcome [1] was “inactive”.

For `C=CC(N)=O`, the Potency (TD50_Rat_Note: TD50 is harmonic mean of more than one positive test, TargetSites_Rat_Female: clitoral gland, mammary gland, nervous system, oral cavity, thyroid gland, uterus) was 3.75 mg/kg/day.

With `C[C@@H]1CCC[C@H](C)N1CCCC(O)(c1ccccc1)c1ccccn1` (stereo partly drawn) the outcome [1] was “inactive; no positive results”.

`COc1cc(-c2ccc(N=C=O)c(OC)c2)ccc1N=C=O` showed a Potency (TD50_Rat_Note: TD50 is harmonic mean of more than one positive test, TargetSites_Rat_Female: hematopoietic system, uterus) of 1630 mg/kg/day.

In the case of `Nc1ccc(-c2ccc(N)c(Cl)c2)cc1Cl`, the Potency [4] is reported as 28.1 mg/kg/day.

With `CC(=O)Nc1ccc(S(=O)(=O)c2ccc(NC(C)=O)cc2)cc1` the Potency (TD50_Rat_Note: no positive results are statistically significant, TargetSites_Rat_Female: mammary gland) was 55.6 mg/kg/day.

`C=CCN(CCO)N=O` showed a Potency (TargetSites_Rat_Female: liver, nasal cavity) of 0.491 mg/kg/day.

For `O=C1c2ccccc2C(=O)N1SC(Cl)(Cl)Cl`, the outcome [1] was “inactive; no positive results”.

With `ClC(Cl)=C(c1ccc(Cl)cc1)c1ccc(Cl)cc1` the outcome [1] was “inactive; no positive results”.

With `ClCC(Cl)Cl` the outcome [1] was “inactive; no positive results”.

For `Cc1noc(NS(=O)(=O)c2ccc(N)cc2)c1C`, the outcome [1] was “inactive; no positive results”.

For `Nc1ccc([N+](=O)[O-])cc1`, the outcome [1] was “inactive; no positive results”.

In the case of `O=C(O)c1[nH]n(-c2ccc(S(=O)(=O)O)cc2)c(=O)c1N=Nc1ccc(S(=O)(=O)O)cc1`, the outcome [1] is reported as “inactive; no positive results”.

With `CC(O)CNCC(C)O` (stereo not drawn) the outcome [2] was “inactive; no positive results”.

With `COc1c2occc2cc2ccc(=O)oc12` the Potency [3] was 32.4 mg/kg/day.
